Data taken from PubChem BioAssay (NCI).
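Each compound was tested at five concentrations against cells in 96-well plates for 48 hours. The concentration for 50% growth inhibition is given as GI50. TGI: total growth inhibition.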

Key:
Assay in all cases: DTP human tumour cell line panel, 48 h
[1] = tested on: ACHN renal
[2] = tested on: CAKI-1 renal
[3] = tested on: CCRF-CEM leukemia
[4] = tested on: HOP-92 NSCLC
[5] = tested on: NCI-H23 lung
[6] = tested on: OVCAR-5 ovarian
[7] = tested on: SF-295 CNS
[8] = tested on: SK-MEL-5 melanoma
[9] = tested on: SK-OV-3 ovarian
[10] = tested on: UACC-62 melanoma

| Structure (SMILES) | TGI [1] | TGI [2] | TGI [3] | TGI [4] | TGI [5] | TGI [6] | TGI [7] | TGI [8] | TGI [9] | TGI [10] | GI50 [1] | GI50 [2] | GI50 [3] | GI50 [4] | GI50 [5] | GI50 [6] | GI50 [7] | GI50 [8] | GI50 [9] | GI50 [10] |
| --- | --- | --- | --- | --- | --- | --- | --- | --- | --- | --- | --- | --- | --- | --- | --- | --- | --- | --- | --- | --- |
| COC(=O)C1=C(C(=O)OC)C2C=CC1C1C(Cl)=C(Cl)C21 (stereo not given) | > 100 µM | > 100 µM | > 100 µM | > 100 µM | > 100 µM | > 100 µM | > 100 µM | > 100 µM | > 100 µM | > 100 µM | – | – | – | – | – | – | – | – | – | – |
| Cc1nn(CN2CCN(C)CC2)c(=S)n1/N=C/c1cccc2ccccc12 | 38.4 µM | 73.5 µM | 55.3 µM | 46.5 µM | 56.2 µM | 40.4 µM | 59.5 µM | 32.1 µM | 42.3 µM | 33.9 µM | 20.1 µM | 28.2 µM | 23.4 µM | 19.9 µM | 21.7 µM | 19.6 µM | 24.9 µM | 16.9 µM | 16 µM | 17.5 µM |
| C[C@]12CC[C@H](O)CC1=CC[C@@H]1[C@@H]2CC[C@]2(C)C(c3cccnc3)=CC[C@@H]12 | > 100 µM | > 100 µM | > 100 µM | > 55.9 µM | > 100 µM | > 100 µM | > 100 µM | > 100 µM | > 100 µM | > 100 µM | 18.7 µM | > 100 µM | > 96.6 µM | 8.7 µM | 12.2 µM | > 100 µM | 6.07 µM | 46.1 µM | > 33.8 µM | 37.4 µM |
| N#C/C(=C1C=C/C(=N/O)C(Br)=C/1)c1ccccc1 | 14.7 µM | 12.7 µM | 8.91 µM | 3.77 µM | 96.8 µM | 6.8 µM | 8.47 µM | 10.4 µM | 71.6 µM | 16 µM | 1.89 µM | 0.7 µM | 0.661 µM | 0.385 µM | 5.26 µM | 2.6 µM | 2.81 µM | 2.75 µM | 4.43 µM | 2.97 µM |
| Clc1ccc(C2N3CCCCC3[C@@H]3c4[nH]c5ccccc5c4CCN23)cc1 (stereo not given in full) | > 100 µM | > 100 µM | > 100 µM | > 100 µM | > 100 µM | > 100 µM | > 100 µM | > 100 µM | > 100 µM | > 100 µM | – | – | – | – | – | – | – | – | – | – |
| Cn1c(N2NC(=O)C(N=Nc3ccc(S(N)(=O)=O)cc3)C2=O)nc(-c2ccco2)c(C#N)c1=O (stereo not given) | > 50 µM | > 50 µM | > 50 µM | > 50 µM | > 50 µM | > 50 µM | > 50 µM | > 50 µM | > 50 µM | > 50 µM | 15.6 µM | 11.9 µM | 8.63 µM | 25.5 µM | 12.8 µM | > 50 µM | > 50 µM | 35.3 µM | > 50 µM | 39.4 µM |
| CCCCC/C(C=C(C#N)C#N)=C/c1ccccc1 | 16.5 µM | 21.3 µM | 6.96 µM | 21.8 µM | 13.6 µM | 10.7 µM | 14.6 µM | 14.2 µM | 23.5 µM | 11.9 µM | 4.53 µM | 1.3 µM | 2.51 µM | 5.82 µM | 3.62 µM | 4.11 µM | 2.76 µM | 2.68 µM | 7.87 µM | 2.84 µM |
| COc1ccc(C2=NN(C(=O)c3cc(OC)c(OC)c(OC)c3)C(c3ccc(C#N)cc3)C2)cc1OC (stereo not given) | > 66.5 µM | 7.15 µM | > 100 µM | 0.792 µM | > 74 µM | > 100 µM | 2.37 µM | 6.67 µM | 8.32 µM | > 53.1 µM | 1.45 µM | 0.412 µM | 3.03 µM | 0.113 µM | 3.07 µM | 5.24 µM | 0.351 µM | 0.483 µM | 0.872 µM | 0.737 µM |
| N#C/C(=C/c1ccsc1)C(=O)c1ccccc1 | > 100 µM | > 100 µM | > 100 µM | > 100 µM | > 100 µM | > 100 µM | > 100 µM | > 100 µM | > 100 µM | > 100 µM | – | – | – | – | – | – | – | – | – | – |
| CC1=C(C(=O)Nc2ccc3[nH]ncc3c2)C(c2ccc3ccccc3c2)CC(=O)N1 (stereo not given) | > 25 µM | > 25 µM | > 25 µM | 10.9 µM | > 25 µM | > 25 µM | > 25 µM | > 25 µM | > 25 µM | > 25 µM | > 25 µM | > 16.9 µM | > 25 µM | 0.0408 µM | 19 µM | 20.5 µM | 16.5 µM | > 19.3 µM | > 25 µM | 14.5 µM |
| CCOc1ccc2c(c1)[n+]([O-])c(S(=O)(=O)c1ccc(C)cc1)c(N)[n+]2[O-] | > 100 µM | > 100 µM | > 100 µM | > 100 µM | > 100 µM | > 100 µM | > 100 µM | > 100 µM | > 100 µM | > 100 µM | – | – | – | – | – | – | – | – | – | – |
| CC(=O)Nc1ccccc1Sc1ccccc1 | > 100 µM | > 100 µM | > 100 µM | > 100 µM | > 100 µM | > 100 µM | > 100 µM | > 100 µM | > 100 µM | > 100 µM | – | – | – | – | – | – | – | – | – | – |
| CN(C)CCNc1cc(-c2ccccc2)nc2ccccc12 | 38.9 µM | 40.9 µM | 37.3 µM | 21.3 µM | 37.6 µM | 36.8 µM | 46.9 µM | 22.4 µM | 39 µM | 30 µM | 4.42 µM | 6.56 µM | 4.43 µM | 3.21 µM | 11.2 µM | 5.9 µM | 7.85 µM | 10.1 µM | 9.24 µM | 13.7 µM |
| Cc1ccc2c(c1)C(=O)/C(=C/c1ncc([N+](=O)[O-])n1C)O2 | 9.11 µM | 7.54 µM | 2.95 µM | > 19.8 µM | 6.56 µM | > 27 µM | 7.82 µM | 2.51 µM | 7.24 µM | 3.84 µM | 0.489 µM | 0.665 µM | 0.324 µM | 2.24 µM | 2.28 µM | 2.7 µM | 2.22 µM | 1.14 µM | 2.53 µM | 1.38 µM |
